Reference: patent US20220162262A1, “NOVEL COMPOUNDS AND THERAPEUTIC USES THEREOF” (priority 2019, published 2022)
Positions of bridges follow the written chain, without caps; N, C: chain ends. Non-standard residues stand in square brackets, D forms with d. Residues, ends and D or L forms follow the SMILES beside them. *: point of attachment. X1 = CC(=O)NC1[C@H](OCCCNC(=O)COc2cc(C(=O)*)cc(-c3ccccc3)c2)OC(CO)[C@@H](O[C@@H]2OC(CO)[C@H](O)[C@H](O[C@H]3OC(CO)[C@H](O)C(O)[C@@H]3O)C2O)[C@@H]1O; X2 = CC(=O)NC1C(O)[C@H](OC2OC(CO)C(O)[C@H](O[C@H]3OC(CO)C(O)C(O)C3O)C2O)C(CO)O[C@H]1OCCCNC(=O)COc1cc(C(=O)*)cc(-c2ccccc2)c1; PEG8 = NCCOCCOCCOCCOCCOCCOCCOCCOCCC(=O)O; Gly(octyl) = CCCCCCCC[C@H](N)C(=O)O; Dab = NCC[C@H](N)C(=O)O; Dap = NC[C@H](N)C(=O)O; Ahx = NCCCCCC(=O)O

Tests used:
Type in all cases: cell-based
[1] = system: E. coli K1:018ac:H7 (ATCC 700973); assay: Flow cytometric anti-Gal IgM antibody recruitment assay, E. coli; settings: for E. coli recruitment assay, side by side comparison with reference example (FIG. 2): 20 μM, in triplicate, E. coli ATCC 700973
Description: (§1) Flow Cytometric Antibody Recruitment Assay Using an Anti-Galα1-3Galβ1-4GlcNAc (Anti-Gal) Antibody
(§2) A secondary fluorescently labelled anti-IgM antibody was used to detect the anti-Gal antibody binding.
(§3) The assays were carried out in polystyrene 96-well U bottom plates (Costar). Frozen stocks of bacteria in mid-exponential phase were thawed, centrifuged and resuspended in LB broth, Miller (Fisher BP1426-500) at OD595=0.2. The bacteria was grown to mid-exponential phase (OD595=0.4), washed once with Hank's Balanced Salt Solution with calcium and magnesium (HBSS+/+) and then resuspended in HBSS+/+ at a bacterial D595=0.6. Bacteria was diluted ⅙ and placed in the 96-well U bottom plate. The bacteria were then incubated for 45 minutes with the compounds of Example 1-4 and reference compounds A-D (see Table 1) at 20 μM concentrations, Polymyxin B at 20 μM concentrations, or buffer alone (vehicle control), at room temperature and shaking at 450 rpm. The bacteria were then washed three times with 200 μL HBSS+/+, prior to adding 50 μL of the mouse/human chimeric anti-Gal IgM antibody M86 (Absolute Antibody Ab00532) at a final concentration of 25 μg/mL in HBSS+/+. The samples were incubated for 1 hour at room temperature shaking at 450 rpm. The bacteria were washed three times as above, prior to adding 100 μL of a FITC-labeled anti-human IgM secondary antibody (Biolegend 314506) at 10 μg/mL in HBSS+/+ and incubating at room temperature for 1 hour at 450 rpm. After three final washes with 200 μL HBSS+/+, the bacteria were resuspended in 200 μL HBSS+/+ and evaluated for anti-Gal antibody binding on a Cytoflex flow cytometer (Beckman Coulter). 50,000 counts of bacterial particles were sampled and the median fluorescent shift was recorded in the FITC-A channel. Data from all samples were analysed using Kaluza software (Beckman Coulter).
(§4) The fold shift over background was calculated by dividing the Median Fluorescent Intensity (MFI) obtained in the presence of 20 μM of the Example compounds by the MFI value obtained in the vehicle controls, i.e., the absence of Examples. The higher the fold shift over background, the more anti-Gal was bound to the bacterial surface. The shift in fluorescence intensity (FITC) occurs due to the binding event at each end of the molecule.
(§5) The fold shift over background was calculated by dividing the Median Fluorescent Intensity (MFI) obtained in the presence of 20 μM of the Example compounds (10 μM for Reference Example A and Example 2 against P. aeruginosa ATCC 27853, 6 μM for Reference Example A and Example 2 against P. aeruginosa PAO1 ATCC 15692) by the MFI value obtained in the vehicle controls, i.e., the absence of Examples. […] The shift in fluorescence intensity (FITC) occurs due to the binding event at each end of the molecule.

[2] = system: P. aeruginosa (ATCC 27853); assay: Flow cytometric anti-Gal IgM antibody recruitment assay, P. aeruginosa ATCC 27853; settings: for IgM Recruitment (20 μM, Average fold change) P. aeruginosa ATCC 27853: 20 μM compound, anti-Gal M86 IgM, MFI fold shift over vehicle control
Description: as §1, §2, §3, §4, §5

[3] = system: K. pneumoniae (NCTC 13465); assay: Flow cytometric anti-Gal IgM antibody recruitment assay, K. pneumoniae; settings: for IgM Recruitment (20 μM, Average fold change) K. pneumoniae NCTC 134655: 20 μM compound, anti-Gal M86 IgM, MFI fold shift over vehicle control; for K. pneumoniae recruitment assay, side by side comparison with reference example (FIG. 2): 20 μM, in triplicate
Description: as §1, §2, §3, §4
The fold shift over background was calculated by dividing the Median Fluorescent Intensity (MFI) obtained in the presence of 20 μM of the Example compounds (10 μM for Reference Example A and Example 2 against P. aeruginosa ATCC 27853, 6 μM for Reference Example A and Example 2 against P. aeruginosa PAO1 ATCC 15692) by the MFI value obtained in the vehicle controls, i.e., the absence of Examples. The higher the fold shift over background, the more anti-Gal was bound to the bacterial surface. The shift in fluorescence intensity (FITC) occurs due to the binding event at each end of the molecule.

Compound	E. coli recruitment assay, side by side comparison with reference example (FIG. 2) [1]	IgM Recruitment (20 μM, Average fold change) P. aeruginosa ATCC 27853 [2]	P. aeruginosa recruitment assay, side by side comparison with reference example (FIG. 2C) ([2]; 20 μM, in triplicate)	IgM Recruitment (20 μM, Average fold change) K. pneumoniae NCTC 134655 [3]	K. pneumoniae recruitment assay, side by side comparison with reference example (FIG. 2) [3]	IgM Recruitment (20 μM, Average fold change) E. coli K1 ATCC700973 ([1]; 20 μM compound, anti-Gal M86 IgM, MFI fold shift over vehicle control)
CCCCCCCC[C@H](NC(=O)CCCCCNC(=O)CCCCCNC(=O)c1cc(OCC(=O)NCCCO[C@@H]2OC(CO)[C@@H](OC3OC(CO)C(O)[C@H](O[C@H]4OC(CO)C(O)C(O)C4O)C3O)C(O)C2NC(C)=O)cc(-c2ccccc2)c1)C(=O)N[C@@H](CCN)C(=O)N[C@H](C(=O)N[C@@H](CCN)C(=O)N[C@H]1CCNC(=O)[C@H]([C@@H](C)O)NC(=O)[C@H](CCN)NC(=O)[C@H](CCN)NC(=O)[C@H](CC(C)C)NC(=O)[C@@H](Cc2ccccc2)NC(=O)[C@H](CCN)NC1=O)[C@@H](C)O (stereo partly shown) [Example 1] ({X2-Ahx-Ahx}-[Gly(octyl)][Dab]T[Dab][Dab][Dab][dF]L[Dab][Dab]T; lactam 5-C)	superiority over Reference Example B	391 (n = 2) fold change				
CCCCCCCC[C@H](NC(=O)CCOCCOCCOCCOCCOCCOCCOCCOCCNC(=O)c1cc(OCC(=O)NCCCO[C@@H]2OC(CO)[C@@H](O[C@@H]3OC(CO)[C@H](O)[C@H](O[C@H]4OC(CO)[C@H](O)C(O)[C@@H]4O)C3O)[C@H](O)C2NC(C)=O)cc(-c2ccccc2)c1)C(=O)N[C@@H](CCN)C(=O)N[C@H](C(=O)N[C@H](CO)C(=O)N[C@H]1CCNC(=O)[C@H]([C@@H](C)O)NC(=O)[C@H](CCN)NC(=O)[C@H](CCN)NC(=O)[C@H](CC(C)C)NC(=O)[C@@H](Cc2ccccc2)NC(=O)[C@H](CCN)NC1=O)[C@@H](C)O (stereo partly shown) [Example 3] ({X1-PEG8}-[Gly(octyl)][Dab]T[dS][Dab][Dab][dF]L[Dab][Dab]T; lactam 5-C)	superiority over Reference Example C	1491 (n = 4) fold change	superiority over Reference Example C	1015 (n = 4) fold change	superiority over Reference Example C	
CCCCCCCC[C@H](NC(=O)CCOCCOCCOCCOCCOCCOCCOCCOCCNC(=O)c1cc(OCC(=O)NCCCO[C@@H]2OC(CO)[C@@H](O[C@@H]3OC(CO)[C@H](O)[C@H](O[C@H]4OC(CO)[C@H](O)C(O)[C@@H]4O)C3O)[C@H](O)C2NC(C)=O)cc(-c2ccccc2)c1)C(=O)N[C@@H](CCN)C(=O)N[C@H](C(=O)N[C@@H](CN)C(=O)N[C@H]1CCNC(=O)[C@H]([C@@H](C)O)NC(=O)[C@H](CCN)NC(=O)[C@H](CCN)NC(=O)[C@H](CC(C)C)NC(=O)[C@@H](Cc2ccccc2)NC(=O)[C@H](CCN)NC1=O)[C@@H](C)O (stereo partly shown) [Example 4] ({X1-PEG8}-[Gly(octyl)][Dab]T[Dap][Dab][Dab][dF]L[Dab][Dab]T; lactam 5-C)	superiority over Reference Example D			898 (n = 2) fold change	superiority over Reference Example D	
Polymyxin B [PMB, reference compound]		1 (n = 5) fold change		1 (n = 2) fold change		1 (n = 5) fold change
